Measured values from US20260115285A1, “MEDICAMENT FOR TREATMENT AND/OR PREVENTION OF CANCER” (TORAY INDUSTRIES, INC., priority 2022, published 2026).

Test system: human colon cancer cell line (HCT116)
Test: Example 4: THP-1-mediated phagocytic activity, anti-CAPRIN-1, anti-CD20 or anti-HER-2 antibody alone or with olaparib
Type: cell-based
Conditions: 1×10^4 HCT116 cocultured 1 hour with 1×10^5 THP-1, antibody final concentration 1 μg/mL (1 μM); for combination HCT116 cultured 2 days with olaparib 20 μM beforehand; N=3
Experimental: The human-derived cancer cell used was a colon cancer cell line HCT116.
Each cancer cell line after the culture was dissociated with TrypLE Express (Thermo), and the cancer cells were stained by the addition of calcein-AM at a final concentration of 0.04 μg/mL and incubation at 37° C. for 10 minutes. […] Further, dead cells were stained with propidium iodide (PI) (final concentration: 0.1 μg/mL), followed by the measurement of fluorescence from the cells by flow cytometry. PI-positive dead cells were excluded from analysis. The human monocytic cells THP-1 recognize an antibody bound onto cancer cells and phagocytize the cancer cells. At that time, if the cancer cells have been stained with calcein-AM, the monocytic cells ingesting the cancer cells by phagocytosis also become positive to calcein-AM. Thus, the phagocytic activity in this evaluation system was calculated as the ratio (%) of APC-positive/calcein-AM-positive cells to the whole calcein-AM-positive population.

Substance: anti-CD20 antibody: anti-CD20 antibody (“Rituxan”) purchased from Chugai Pharmaceutical Co., Ltd.
- phagocytic activity against cancer cells: ≤ 7%
